Assay results as given in the supplement of paper PMC10307832.

Tests used:
Experiment in all cases: relative viability (nuclei count vs DMSO), 5 days (fraction); higher = more cells survive
[1] = tested on: PC-3 [JPC-3]
Procedure, shortened: (§1)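 After 5 days of treatment, lung cancer cells in 1536-well plates were fixed and stained in a single step (final 0.05% Triton X-100, 1% formaldehyde, 1 ug/ml Hoechst) and their nuclei counted on 4× images. Treatment had been applied by pin tool the day after seeding as one drug alone or as a fixed anchor-drug dose with five library-drug doses (not always all listed) in √10 steps. Relative viability is the nuclei count of treated wells divided by that of vehicle wells, and values are medians of duplicate plates.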

[2] = tested on: NCI-H1975
Procedure, shortened: as §1

[3] = tested on: CAL-12T
Procedure, shortened: as §1

[4] = tested on: NCI-H2228
Procedure, shortened: as §1

[5] = tested on: HCC-366
Procedure, shortened: as §1

[6] = tested on: NCI-H647
Procedure, shortened: as §1

[7] = tested on: LC-2-ad
Procedure, shortened: as §1

[8] = tested on: LU99A
Procedure, shortened: as §1

[9] = tested on: SK-LU-1
Procedure, shortened: as §1

[10] = tested on: NCI-H1993
Procedure, shortened: as §1

[11] = tested on: H3255
Procedure, shortened: as §1

[12] = tested on: NCI-H838
Procedure, shortened: as §1

[13] = tested on: PC-14
Procedure, shortened: as §1

[14] = tested on: NCI-H1944
Procedure, shortened: as §1

[15] = tested on: COR-L 105
Procedure, shortened: as §1

[16] = tested on: NCI-H1734
Procedure, shortened: as §1

[17] = tested on: NCI-H1666
Procedure, shortened: as §1

[18] = tested on: NCI-H1395
Procedure, shortened: as §1

[19] = tested on: HARA
Procedure, shortened: as §1

[20] = tested on: NCI-H520
Procedure, shortened: as §1

[21] = tested on: HCC-15
Procedure, shortened: as §1

[22] = tested on: NCI-H661
Procedure, shortened: as §1

[23] = tested on: NCI-H3122
Procedure, shortened: as §1

Question: What does the source list for `Cc1cnc(-c2cnc(NCCNc3ccc(C#N)cn3)nc2-c2ccc(Cl)cc2Cl)[nH]1` + O=C(CCCCCCC(=O)Nc1ccccc1)NO [Vorinostat] (partner 1 µM)?
Answer: relative viability ([1]; first compound 0.08 µM): 0.811; relative viability ([1]; first compound 0.253 µM): 0.713; relative viability ([1]; first compound 0.8 µM): 0.726; relative viability ([1]; first compound 2.53 µM): 0.838; relative viability ([2]; first compound 0.08 µM): 0.783; relative viability ([2]; first compound 0.253 µM): 0.699; relative viability ([2]; first compound 0.8 µM): 0.732; relative viability ([2]; first compound 2.53 µM): 0.614; relative viability ([3]; first compound 0.08 µM): 0.928; relative viability ([3]; first compound 0.253 µM): 0.702; relative viability ([3]; first compound 0.8 µM): 0.848; relative viability ([3]; first compound 2.53 µM): 0.807; relative viability ([4]; first compound 0.08 µM): 0.891; relative viability ([4]; first compound 0.253 µM): 0.642; relative viability ([4]; first compound 0.8 µM): 0.668; relative viability ([4]; first compound 2.53 µM): 0.693; relative viability ([5]; first compound 0.08 µM): 0.332; relative viability ([5]; first compound 0.253 µM): 0.24; relative viability ([5]; first compound 0.8 µM): 0.31; relative viability ([5]; first compound 2.53 µM): 0.369; relative viability ([6]; first compound 0.08 µM): 0.609; relative viability ([6]; first compound 0.253 µM): 0.399; relative viability ([6]; first compound 0.8 µM): 0.743; relative viability ([6]; first compound 2.53 µM): 0.357; relative viability ([7]; first compound 0.08 µM): 0.708; relative viability ([7]; first compound 0.8 µM): 0.705; relative viability ([7]; first compound 2.53 µM): 0.603; relative viability ([8]; first compound 0.08 µM): 0.592; relative viability ([8]; first compound 0.253 µM): 0.523; relative viability ([8]; first compound 0.8 µM): 0.535; relative viability ([8]; first compound 2.53 µM): 0.559; relative viability ([9]; first compound 0.08 µM): 0.735; relative viability ([9]; first compound 0.253 µM): 0.818; relative viability ([9]; first compound 0.8 µM): 0.849; relative viability ([9]; first compound 2.53 µM): 0.85; relative viability ([10]; first compound 0.08 µM): 1.26; relative viability ([10]; first compound 0.253 µM): 0.761; relative viability ([10]; first compound 0.8 µM): 0.727; relative viability ([10]; first compound 2.53 µM): 0.76; relative viability ([11]; first compound 0.08 µM): 0.599; relative viability ([11]; first compound 0.253 µM): 0.717; relative viability ([11]; first compound 0.8 µM): 0.754; relative viability ([11]; first compound 2.53 µM): 0.829; relative viability ([12]; first compound 0.08 µM): 0.726; relative viability ([12]; first compound 0.253 µM): 0.723; relative viability ([12]; first compound 0.8 µM): 0.856; relative viability ([12]; first compound 2.53 µM): 1.06; relative viability ([13]; first compound 0.08 µM): 0.851; relative viability ([13]; first compound 0.253 µM): 0.603; relative viability ([13]; first compound 0.8 µM): 0.727; relative viability ([13]; first compound 2.53 µM): 0.587; relative viability ([14]; first compound 0.08 µM): 0.591; relative viability ([14]; first compound 0.8 µM): 0.614; relative viability ([14]; first compound 2.53 µM): 0.566; relative viability ([15]; first compound 0.08 µM): 0.942; relative viability ([15]; first compound 0.253 µM): 0.77; relative viability ([15]; first compound 0.8 µM): 0.596; relative viability ([15]; first compound 2.53 µM): 0.663; relative viability ([16]; first compound 0.08 µM): 0.88; relative viability ([16]; first compound 0.253 µM): 0.693; relative viability ([16]; first compound 0.8 µM): 0.745; relative viability ([16]; first compound 2.53 µM): 0.661; relative viability ([17]; first compound 0.08 µM): 0.899; relative viability ([17]; first compound 0.253 µM): 1.05; relative viability ([17]; first compound 0.8 µM): 0.964; relative viability ([17]; first compound 2.53 µM): 1.1; relative viability ([18]; first compound 0.08 µM): 0.847; relative viability ([18]; first compound 0.253 µM): 0.577; relative viability ([18]; first compound 0.8 µM): 0.62; relative viability ([18]; first compound 2.53 µM): 0.6; relative viability ([19]; first compound 0.08 µM): 0.659; relative viability ([19]; first compound 0.253 µM): 0.612; relative viability ([19]; first compound 0.8 µM): 0.487; relative viability ([19]; first compound 2.53 µM): 0.492; relative viability ([20]; first compound 0.08 µM): 0.814; relative viability ([20]; first compound 0.253 µM): 0.678; relative viability ([20]; first compound 0.8 µM): 0.725; relative viability ([20]; first compound 2.53 µM): 0.772; relative viability ([21]; first compound 0.08 µM): 0.832; relative viability ([21]; first compound 0.253 µM): 0.818; relative viability ([21]; first compound 0.8 µM): 0.817; relative viability ([21]; first compound 2.53 µM): 0.829; relative viability ([22]; first compound 0.08 µM): 0.906; relative viability ([22]; first compound 0.253 µM): 0.774; relative viability ([22]; first compound 0.8 µM): 0.782; relative viability ([22]; first compound 2.53 µM): 0.731; relative viability ([23]; first compound 0.08 µM): 0.989; relative viability ([23]; first compound 0.8 µM): 0.934; relative viability ([23]; first compound 2.53 µM): 0.951
